The nature of this data set: Solubility of peptide monomer. The data set is classed as physicochemical. To be noted: water, or water/solvent mixtures. The protocol: As described further below, Poly 1-3 were tested for gene delivery applications. As contemplated structures are highly adaptable, structural variations can be made with relative ease to optimize gene transfection levels while maintaining relatively low levels of cytotoxicity. Initial manipulations were performed involving lengthening the peptidyl monomer sequence with additional L-lysine residues to thereby increase the charge density of the polymer overall and to thereby offer stronger DNA binding. It should be recognized that where increased charge density improves the gene transfectability of the polymer system, more residues can be added until an optimal length is found. […] For this reason, solution phase polymerizations were attempted to yield small polymer chains and cyclic structures. One example of cyclic structures is given in Structure VI below.

Non-standard residues stand in square brackets, D forms with d. Residues, ends and D or L forms follow the SMILES beside them. ξ: configuration not given here. *: point of attachment. Boc = CC(C)(C)OC(=O)*; ξK = NCCCCC(N)C(=O)O

In the case of `COC(=O)[C@H](CCCCN)NC(=O)C(CCCCNC(=O)OC(C)(C)C)NC(=O)C(CCCCNC(=O)OC(C)(C)C)NC(=O)C(CCCCNC(=O)OC(C)(C)C)NC(=O)[C@H](CCCCN)NC(=O)OC(C)(C)C` (stereo partly shown) [pentalysine monomer] (Boc-K[ξK](Boc)[ξK](Boc)[ξK](Boc)K-OMe), the solubility result is given as “insoluble”.

Source of the values: patent US9238697B2, “Polymeric materials and methods” (The Regents of the University of California, priority 2005, dated 2016).
